# Square brackets hold non-standard residues; d marks the D form. Peptide text beside a SMILES is read from it. * marks the point of attachment. Sta = CC(C)C[C@H](N)[C@@H](O)CC(=O)O; Isovaleryl = CC(C)CC(=O)*; Nle = CCCC[C@H](N)C(=O)O
# How the values were obtained:
# [1] = test system: HepG2 cells; assay: Degradation of α-DNP antibody endocytosed via DNP-AF3 in HepG2 cells (PAGE, 50 kDa/25 kDa band ratio) and effect of protease inhibitors; type: cell-based, human; settings: for inhibition of α-DNP antibody degradation, triplicate: 12 hours, FIG. 117; for toxicity to cells: pepstatin 5 μM after 24 hours, AEBSF 100 μM, ALLN 100 μM by 24 hours; for inhibition of degradation of α-DNP antibody, repeat with selected conditions: 80 μM leupeptin, 10 and 100 μM ALLN, 15 μM pepstatin, FIG. 118, leupeptin not significant (p=0.0504)
# From the text: First, reducing conditions were used to visualize antibody degradation via PAGE gel.
# [2] = test system: HepG2 cells; assay: DNP-GN3-mediated endocytosis of fluorescently labeled α-DNP antibody by adherent HepG2 cells; type: cell-based, human; settings: DNP-GN3-mediated uptake; FIG. 89
# Procedure: It was next explored whether DNP-GN3 mediates the endocytosis of fluorescently labeled α-DNP antibody.
# To explore the cellular mechanism of antibody uptake, cells were treated with chemical inhibitors of several endocytic pathways (FIG. 89).
# [3] = test system: HepG2 cells; assay: MIF-GN3-mediated endocytosis of fluorescently labeled human MIF by HepG2 cells; settings: for effect of endocytic pathway inhibitors on MIF-GN3-mediated MIF endocytosis: 100 nM MIF, 200 nM MIF-GN3, FIG. 132
# Procedure: Human MIF protein was fluorescently labeled with Alexa 488 NHS ester, then incubated with HepG2 cells in the presence of varying levels of MIF-GN3.
# Next, inhibitors of various endocytic pathways were utilized to determine if MIF-GN3 mediates MIF endocytosis in a manner consistent with ASGPR (FIG. 132).
# [4] = biological target: T1, human MIF (Homo sapiens, UniProt P14174); assay: Depletion of human MIF from cell culture supernatant (sandwich ELISA); type: cell-based; set-up: host or cells: exogenous protein added to cell culture; settings: for depletion of MIF from cell culture supernatant / depletion of human MIF from cell culture supernatant: human MIF 100 nM; for depletion of MIF from cell culture supernatant: MIF-AF2 at 40 nM, 200 nM, and 1 μM, FIG. 129; for depletion of human MIF from cell culture supernatant: FIG. 128A
# T1 sequence (P14174 2-115 limits assumed): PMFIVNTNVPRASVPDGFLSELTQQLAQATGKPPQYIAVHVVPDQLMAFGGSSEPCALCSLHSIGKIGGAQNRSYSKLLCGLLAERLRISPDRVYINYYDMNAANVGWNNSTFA
# Procedure: The ability of bifunctional MIF-binding molecules to mediate the depletion of human MIF from cell culture was investigated. In these assays, human MIF was present at a concentration of 100 nM, and a sandwich ELISA assay was utilized to measure the concentration of human MIF remaining in the cell culture supernatant. The closely related bifunctional molecules MIF-GN3, MIF-PEG2-GN3, and MIF-PEG4-GN3 were used, as well as the structurally dissimilar molecule MIF-NVS-PEG3-GN3. […] Based on the ease of its synthesis and its efficacy in this experiment, MIF-GN3 was utilized for further studies. It was next investigated whether the MIF inhibitor 3w mediates MIF depletion from cell culture supernatant. […] When cells were treated with 3w, no depletion of exogenous MIF protein was observed after 24 hours (FIG. 128B).
# [5] = test system: HepG2 cells; assay: DNP-AF3-mediated endocytosis of fluorescently labeled α-DNP antibody by HepG2 cells (flow cytometry); type: cell-based, human; settings: 40 nM DNP-AF3, 100 nM antibody; FIG. 106
# Procedure: The intracellular fluorescence of cells that were incubated at 37° C. with both fluorescently labeled α-DNP antibody and DNP-AF3 for a given amount of time was examined. Cells were then washed, removed from the plate with trypsin, and subjected to flow cytometry. Trypsin treatment is expected to cleave ASGPR and surface-bound α-DNP antibody from cells, and therefore the cellular fluorescence observed in these assays is expected to arise only from internalized antibodies.
# It was then determined if reagents which inhibit ternary complex formation inhibit endocytosis mediated by DNP-AF3. In order to account for non-specific antibody association with cells, the mean fluorescence intensity of an aliquot of cells which had been treated with α-DNP antibody but not DNP-AF3 was subtracted from each reading. […] In the presence of 2.38 μM (0.1 mg/mL) ASOR, the cell population fluorescence was decreased to 4.66e5 (FIG. 105); at this ASOR concentration, ternary complex formation is decreased by approximately 70%. Because ternary complex is not inhibited completely at this concentration of ASOR, it is expected that productive endocytic events are still taking place.
# [6] = single replicate, FIG. 116, leupeptin 20 and 80, E64 50 and 10 μM, antipain 50 and 100 μM, aprotinin 400 or 800 nM, PMSF 100 or 500 μM, AEBSF 10 μM, ALLN 10 μM
compound,measurement,setting,value
"Cl.NCCc1ccc(S(=O)(=O)F)cc1 [AEBSF, 4-(2-aminoethyl)benzeneulfonyl fluoride hydrochloride]","inhibition of α-DNP antibody degradation, triplicate",[1],did not significantly inhibit
same,toxicity to cells,[1],toxic to cells
same,"inhibition of α-DNP antibody degradation, initial screen",[1]; [6],not effective
CCCC[C@@H](C=O)NC(=O)[C@H](CC(C)C)NC(=O)[C@H](CC(C)C)NC(C)=O [ALLN] (Ac-Leu-Leu-[Nle]-aldehyde),"inhibition of α-DNP antibody degradation, initial screen","[1]; 100 μM, 12 hour time point",strong inhibition
same,"inhibition of α-DNP antibody degradation, triplicate",[1],appeared effective
same,"inhibition of α-DNP antibody degradation, initial screen",[1]; [6],not active
CC(C)C[C@H](NC(=O)[C@@H](O)[C@H](N)Cc1ccccc1)C(=O)O [Bestatin],"inhibition of α-DNP antibody degradation, triplicate",[1],did not significantly inhibit
same,"inhibition of α-DNP antibody degradation, initial screen",[1]; [6],not effective
"CC(C)C[C@H](NC(=O)[C@H]1O[C@@H]1C(=O)O)C(=O)NCCCCN=C(N)N [Compound E64, E64]","inhibition of degradation of α-DNP antibody, repeat with selected conditions",[1],inhibited degradation
same,"inhibition of α-DNP antibody degradation, triplicate",[1],inhibit α-DNP antibody degradation at all concentrations tested
same,"inhibition of α-DNP antibody degradation, initial screen",[1]; [6],effective
CCN(c1nc(N)c(C(=O)NC(=N)N)nc1Cl)C(C)C [EIPA],effect of endocytic pathway inhibitors on intracellular fluorescence,[2],did not significantly decrease
same,effect of endocytic pathway inhibitors on MIF-GN3-mediated MIF endocytosis,[3],significantly inhibited uptake
O=C(CCCOc1ccc2nc(-c3cn(-c4ccc(O)c(F)c4)nn3)ccc2c1)NCCOCCC(=O)NCCOCCOCCOCCOC[C@]12CO[C@H](O1)[C@H](NC(=O)C(F)(F)F)[C@@H](O)[C@H]2O [MIF-AF1],depletion of MIF from cell culture supernatant,[4],not effective
O=C(CCOCC(COCCC(=O)NCCOCCOCCOCCOC[C@]12CO[C@H](O1)[C@H](NC(=O)C(F)(F)F)[C@@H](O)[C@H]2O)NC(=O)CCCOc1ccc2nc(-c3cn(-c4ccc(O)c(F)c4)nn3)ccc2c1)NCCOCCOCCOCCOC[C@]12CO[C@H](O1)[C@H](NC(=O)C(F)(F)F)[C@@H](O)[C@H]2O [MIF-AF2],depletion of MIF from the cell culture supernatant,"[4]; 200 nM or 1 (μM), after 48 hours",~100%
same,depletion of MIF from cell culture supernatant,[4],effective at depleting MIF
O=C(CCOCC(COCCC(=O)NCCOCCOCCOCCOC[C@]12CO[C@H](O1)[C@H](NC(=O)C(F)(F)F)[C@@H](O)[C@H]2O)(COCCC(=O)NCCOCCOCCOCCOC[C@]12CO[C@H](O1)[C@H](NC(=O)C(F)(F)F)[C@@H](O)[C@H]2O)NC(=O)CCCOc1ccc2nc(-c3cn(-c4ccc(O)c(F)c4)nn3)ccc2c1)NCCOCCOCCOCCOC[C@]12CO[C@H](O1)[C@H](NC(=O)C(F)(F)F)[C@@H](O)[C@H]2O [MIF-AF3],molar equivalents of MIF protein depleted,[4]; 40 nM,2.08 molar equivalents
same,human MIF protein removed,[4]; 40 nM (4.0 pmol of molecule),8.32 pmol
same,removal of MIF present in the cell culture supernatant,[4]; 40 nM (4.0 pmol of molecule),83.2%
CC(=O)NC1C(OCCOCCOCCNC(=O)CCOCC(COCCC(=O)NCCOCCOCCOC2OC(CO)C(O)C(O)C2NC(C)=O)(COCCC(=O)NCCOCCOCCOC2OC(CO)C(O)C(O)C2NC(C)=O)NC(=O)CNC(=O)COCCOCCOCCn2cc(COCCOCCOc3ccc(N4Cc5ccc(O)cc5OC4=O)cc3)nn2)OC(CO)C(O)C1O (centres unmarked) [MIF-NVS-PEG3-GN3],depletion of human MIF from cell culture supernatant,[4]; 24 hours,effective at mediating the depletion of human MIF
CC(=O)NC1C(OCCOCCOCCNC(=O)CCOCC(COCCC(=O)NCCOCCOCCOC2OC(CO)C(O)C(O)C2NC(C)=O)(COCCC(=O)NCCOCCOCCOC2OC(CO)C(O)C(O)C2NC(C)=O)NC(=O)CNC(=O)COCCOCCNC(=O)CCCOc2ccc3nc(-c4cn(-c5ccc(O)c(F)c5)nn4)ccc3c2)OC(CO)C(O)C1O (centres unmarked) [MIF-PEG2-GN3],depletion of exogenous MIF protein from supernatant,"[4]; 24 hours, FIG. 128B",mediated MIF depletion across a range of concentrations
same,depletion of human MIF from cell culture supernatant,[4]; 24 hours,effective at mediating the depletion of human MIF
CC(=O)NC1C(OCCOCCOCCNC(=O)CCOCC(COCCC(=O)NCCOCCOCCOC2OC(CO)C(O)C(O)C2NC(C)=O)(COCCC(=O)NCCOCCOCCOC2OC(CO)C(O)C(O)C2NC(C)=O)NC(=O)CNC(=O)COCCOCCOCCOCCNC(=O)CCCOc2ccc3nc(-c4cn(-c5ccc(O)c(F)c5)nn4)ccc3c2)OC(CO)C(O)C1O (centres unmarked) [MIF-PEG4-GN3],depletion of human MIF from cell culture supernatant,[4]; 24 hours,effective at mediating the depletion of human MIF
"O=S(=O)(F)Cc1ccccc1 [PMSF, Phenylmethylsulfonyl fluoride]","inhibition of α-DNP antibody degradation, triplicate",[1],did not significantly inhibit
same,"inhibition of α-DNP antibody degradation, initial screen",[1]; [6],not effective
CC(C)CC(=O)N[C@H](C(=O)N[C@H](C(=O)N[C@@H](CC(C)C)[C@@H](O)CC(=O)N[C@@H](C)C(=O)N[C@@H](CC(C)C)[C@@H](O)CC(=O)O)C(C)C)C(C)C [Pepstatin] (Isovaleryl-VV[Sta]A[Sta]-OH),"inhibition of degradation of α-DNP antibody, repeat with selected conditions",[1],did not
same,"inhibition of α-DNP antibody degradation, triplicate",[1],did not significantly inhibit
same,toxicity to cells,[1],toxic to cells
same,"inhibition of α-DNP antibody degradation, initial screen",[1]; [6],not effective
Cl.N [ammonium chloride],effect of endocytic pathway inhibitors on MIF-GN3-mediated MIF endocytosis,[3],near background levels
"CO/C1=C\C(C)=C\[C@@H](C)[C@@H](O)[C@@H](C)C/C(C)=C/C=C/[C@H](OC)[C@@H]([C@@H](C)[C@@H](O)[C@H](C)[C@@]2(O)C[C@@H](O)[C@H](C)[C@@H](C(C)C)O2)OC1=O [bafilomycin, Bafilomycin]",effect of endocytic pathway inhibitors on intracellular fluorescence,[2],significantly decreased
same,effect of endocytic pathway inhibitors on MIF-GN3-mediated MIF endocytosis,[3],near background levels
"CCN(CC)CCCC(C)Nc1ccnc2cc(Cl)ccc12 (centres unmarked) [chloroquine, Chloroquine]",effect of endocytic pathway inhibitors on intracellular fluorescence,[2],significantly decreased
same,effect of endocytic pathway inhibitors on MIF-GN3-mediated MIF endocytosis,[3],near background levels
C=C1[C@@H](C)[C@H]2[C@H](Cc3ccccc3)NC(=O)[C@]23[C@H](OC(C)=O)/C=C/[C@@](C)(O)C(=O)[C@@H](C)C/C=C/[C@H]3[C@@H]1O [cytochalasin D],effect of endocytic pathway inhibitors on intracellular fluorescence,[2],did not significantly decrease
C=C1[C@@H](C)[C@H]2[C@H](Cc3ccccc3)NC(=O)[C@]23[C@H](OC(C)=O)/C=C/[C@@](C)(O)C(=O)[C@@H](C)C/C=C/[C@H]3[C@@H]1O [cytochalisin D (CytD)],effect of endocytic pathway inhibitors on fluorescence of the cell population,[5],non-significant decrease
"O=c1c(-c2ccc(O)cc2)coc2cc(O)cc(O)c12 [genistein, Genistein]",toxicity to cells,[3]; HepG2 cells with MIF and MIF-GN3,toxic to cells
same,effect of endocytic pathway inhibitors on fluorescence of the cell population,[5],did not significantly decrease
"CC(=O)N[C@@H](CC(C)C)C(=O)N[C@@H](CC(C)C)C(=O)N[C@H](C=O)CCCNC(=N)N [leupeptin, Leupeptin]","inhibition of degradation of α-DNP antibody, repeat with selected conditions",[1],inhibited degradation
same,"inhibition of α-DNP antibody degradation, triplicate",[1],inhibit α-DNP antibody degradation at all concentrations tested
same,"inhibition of α-DNP antibody degradation, initial screen",[1]; [6],effective
"CC[C@@]1([C@@H]2O[C@@H]([C@H]3O[C@@](O)(CO)[C@H](C)C[C@@H]3C)C[C@@H]2C)CC[C@H]([C@]2(C)CC[C@]3(C[C@H](O)[C@@H](C)[C@@H]([C@@H](C)[C@@H](OC)[C@H](C)C(=O)O)O3)O2)O1 [monensin, Monensin]",effect of endocytic pathway inhibitors on intracellular fluorescence,[2],significantly decreased
same,effect of endocytic pathway inhibitors on MIF-GN3-mediated MIF endocytosis,[3],near background levels
OC[C@H]1O[C@@](CO)(O[C@H]2O[C@H](CO)[C@@H](O)[C@H](O)[C@H]2O)[C@@H](O)[C@@H]1O [sucrose],effect of endocytic pathway inhibitors on intracellular fluorescence,[2],significantly decreased
same,effect of endocytic pathway inhibitors on MIF-GN3-mediated MIF endocytosis,[3],near background levels
Aprotinin,"inhibition of α-DNP antibody degradation, triplicate",[1],did not significantly inhibit
same,"inhibition of α-DNP antibody degradation, initial screen",[1]; [6],not effective

# From patent publication US20230087994A1, “TARGETED BIFUNCTIONAL DEGRADERS” (YALE UNIVERSITY, priority 2019, published 2023)
